# ChEMBL document CHEMBL1201862, “PubChem BioAssay data set” (2004)
# Active and inactive are the calls of the source.
# What was measured:
# [1] = ADAM10 protease inhibitors, dose response, selectivity assay for ADAM17 exosite inhibitor project, biochemical, FRET peptide substrate, recombinant human ADAM10 (AID 743259);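 further: ADAM10 enzyme cleaving a FRET peptide substrate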
# [2] = target: Disintegrin and metalloproteinase domain-containing protein 17 (Homo sapiens, UniProt P78536); experiment: exosite inhibitors of ADAM17, dose response, biochemical (AID 743260)
# Disintegrin and metalloproteinase domain-containing protein 17, sequence (P78536 whole entry, the tested form may be a part): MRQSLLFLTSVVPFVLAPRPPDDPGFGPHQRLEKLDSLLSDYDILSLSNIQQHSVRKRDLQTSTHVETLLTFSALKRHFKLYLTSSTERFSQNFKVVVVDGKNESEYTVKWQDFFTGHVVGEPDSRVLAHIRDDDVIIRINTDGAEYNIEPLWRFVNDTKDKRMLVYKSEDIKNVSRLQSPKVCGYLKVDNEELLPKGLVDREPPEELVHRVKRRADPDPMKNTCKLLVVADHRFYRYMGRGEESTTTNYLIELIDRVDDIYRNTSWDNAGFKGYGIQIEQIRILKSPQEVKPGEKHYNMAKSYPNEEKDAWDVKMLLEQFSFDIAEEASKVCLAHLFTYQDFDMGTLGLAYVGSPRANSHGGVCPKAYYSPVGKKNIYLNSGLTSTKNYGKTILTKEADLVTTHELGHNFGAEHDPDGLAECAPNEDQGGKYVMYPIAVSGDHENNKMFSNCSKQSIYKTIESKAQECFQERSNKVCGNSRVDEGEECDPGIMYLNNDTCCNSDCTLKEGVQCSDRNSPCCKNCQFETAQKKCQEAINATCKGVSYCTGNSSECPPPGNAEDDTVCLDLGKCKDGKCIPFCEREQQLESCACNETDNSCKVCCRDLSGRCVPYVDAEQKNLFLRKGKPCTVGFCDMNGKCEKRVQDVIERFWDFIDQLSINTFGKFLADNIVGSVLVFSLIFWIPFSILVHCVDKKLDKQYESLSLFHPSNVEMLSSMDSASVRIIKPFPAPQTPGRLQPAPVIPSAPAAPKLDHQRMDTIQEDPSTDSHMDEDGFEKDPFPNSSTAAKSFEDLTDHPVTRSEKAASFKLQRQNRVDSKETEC
# HeLa = experiment: HeLa cell cytotoxicity, dose response, cytotoxicity control, ATP luminescence, cherry-pick samples (AID 687004); format: functional, cell-based; details: Homo sapiens
# Vero = experiment: cells; format: functional; details: Chlorocebus sabaeus
# [3] = HEp-2 cell cytotoxicity, dose response, cytotoxicity control for RSV inhibitor project, HTS (AID 2410); format: functional; details: human respiratory syncytial virus
# [4] = target: T1, High affinity choline transporter 1 (Homo sapiens, UniProt Q9GZV3); experiment: CHT inhibitors, dose response, cell-based, 5-point CRC, membrane potential dye (AID 504840); format: functional
# T1 sequence (Q9GZV3 whole entry): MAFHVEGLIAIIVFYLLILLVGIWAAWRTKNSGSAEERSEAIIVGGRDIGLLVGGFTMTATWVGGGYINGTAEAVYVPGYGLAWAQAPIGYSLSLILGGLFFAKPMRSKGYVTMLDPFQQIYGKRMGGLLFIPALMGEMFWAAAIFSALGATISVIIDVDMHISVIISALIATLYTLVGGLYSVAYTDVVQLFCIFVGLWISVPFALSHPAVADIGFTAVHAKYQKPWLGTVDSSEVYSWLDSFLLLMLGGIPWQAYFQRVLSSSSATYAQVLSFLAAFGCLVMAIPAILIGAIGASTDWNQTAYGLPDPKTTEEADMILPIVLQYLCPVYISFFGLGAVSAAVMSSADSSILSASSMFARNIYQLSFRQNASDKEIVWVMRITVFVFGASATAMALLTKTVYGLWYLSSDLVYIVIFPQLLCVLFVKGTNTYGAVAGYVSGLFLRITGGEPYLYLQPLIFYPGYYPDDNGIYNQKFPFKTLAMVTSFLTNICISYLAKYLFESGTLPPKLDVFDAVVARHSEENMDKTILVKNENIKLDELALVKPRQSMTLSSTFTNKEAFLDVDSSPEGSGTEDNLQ
Compound,IC50 [1],IC50 [2],AC50 (HeLa),CC50 (Vero),CC50 [3],IC50 [4]
O=C1NC(=O)C(c2ccc(Cl)cc2)N1 (stereo not given),> 69.4 µM (inactive),> 69.4 µM (inactive),,,,
COc1cccc(C(NC(C)=O)c2nc(-c3ccc4ccccc4c3)cs2)c1 (stereo not given),18.5 µM (inactive),> 69.5 µM (inactive),,,,
C[C@@H]1CN([C@@H](C)CO)C(=O)Cc2cc(NS(=O)(=O)c3ccccc3)ccc2O[C@@H]1CN(C)Cc1ccc(Cl)c(Cl)c1,,,43.7 µM (active),,,
CN1C(=O)/C(=N\c2ccc(O)cc2)c2c3ccccc3c(O)c3cccc1c23,28.9 µM (inactive),> 69.5 µM (inactive),,> 25 µM (active),16.8 µM (active),12.3 µM (active)
